ChEMBL document CHEMBL5604063, “ASAP - DENV-2 NS2B-NS3 protease fluorescence dose response” (2024)
Values joined by “and” are separate entries in the source; they are usually repeats but may differ in a detail not shown here. Equal entries are not always repeated.

Target: T1, Genome polyprotein (dengue virus type 2, UniProt P29990)
Format: functional, Thailand/16681/1984

T1 sequence (P29990 1346-1475 limits assumed): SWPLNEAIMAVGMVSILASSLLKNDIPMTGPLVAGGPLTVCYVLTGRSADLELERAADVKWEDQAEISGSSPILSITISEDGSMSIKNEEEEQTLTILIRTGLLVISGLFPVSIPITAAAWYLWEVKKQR
T1 sequence (P29990 1476-2093 limits assumed): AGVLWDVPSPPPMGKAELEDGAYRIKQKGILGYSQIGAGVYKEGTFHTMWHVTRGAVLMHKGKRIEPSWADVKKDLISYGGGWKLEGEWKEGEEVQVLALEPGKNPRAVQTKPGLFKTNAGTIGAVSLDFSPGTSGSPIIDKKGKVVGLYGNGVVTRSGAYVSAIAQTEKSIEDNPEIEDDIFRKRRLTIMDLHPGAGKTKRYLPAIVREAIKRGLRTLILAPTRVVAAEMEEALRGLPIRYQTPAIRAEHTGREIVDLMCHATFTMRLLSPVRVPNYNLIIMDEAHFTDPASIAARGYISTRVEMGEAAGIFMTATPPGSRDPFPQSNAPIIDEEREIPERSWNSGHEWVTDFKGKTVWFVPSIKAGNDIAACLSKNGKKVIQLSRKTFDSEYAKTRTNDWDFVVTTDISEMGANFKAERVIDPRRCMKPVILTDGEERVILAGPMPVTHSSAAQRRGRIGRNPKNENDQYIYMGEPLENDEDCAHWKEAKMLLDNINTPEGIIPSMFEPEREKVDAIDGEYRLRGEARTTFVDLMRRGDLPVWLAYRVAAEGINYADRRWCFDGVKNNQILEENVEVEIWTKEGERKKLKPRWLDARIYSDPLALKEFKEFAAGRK

Row | Compound | IC50
1 | CC[C@H](CO)NC(=O)Cn1ccnc(N2CC[C@H](CO)C2)c1=O | > 100 µM
2 | O=C(Nc1ccc2c(c1)CNC2)c1cc(Cl)cc2c1NCCC2 | > 100 µM
3 | O=C(O)c1cc(Cc2c[nH]c3ccc(Cl)cc23)cc(C2CC2)n1 | > 100 µM
4 | CO[C@H](C)Cn1cc2c(C(=O)Nc3ccc4c(c3)CNC4)cc(Cl)cc2n1 | > 100 µM
5 | N#Cc1cccc(-c2nc3c(C(=O)NCc4ccccc4)cc(Cl)cc3[nH]2)c1 | > 100 µM
6 | CC(C)CNC(=O)c1cc(Cl)cc2[nH]c(-c3cccc(C#N)c3)nc12 | > 100 µM
7 | N#Cc1cccc(-c2nc3c(C(=O)Nc4ccncc4)cc(Cl)cc3[nH]2)c1 | > 100 µM
8 | Cc1ccncc1-c1cc(CN)cc([C@@H]2C[C@H]2c2cc(Cl)cc(NC(=O)OCc3ccccc3)c2)c1 | > 100 µM
9 | Nc1cc(Cl)cc(C(=O)Nc2ccc3c(c2)CNC3)c1N | > 100 µM
10 | N[C@H]1CCc2cc(NC(=O)c3cc(Cl)cc4[nH]ncc34)ccc21 | 59.2 µM
11 | NCc1csc2cc(C(=O)Nc3ccc4c(c3)CNC4)ccc12 | 83.1 µM and > 100 µM
12 | O=C(Nc1cc(Cl)cc(-c2cc3cc(C(=O)O)ncn3c2)c1)OCc1ccccc1 | 50.1 µM
13 | O=C(Nc1ccc2c(c1)CNC2)c1cc(Br)cc2[nH]c(Cc3ccccc3)nc12 | > 100 µM and 53.9 µM
14 | NCc1cccc(NC(=O)c2cccc(CN)c2)c1 | > 100 µM
15 | N#C[C@H](Nc1ccc2c(c1)CNC2)c1n[nH]c2cc(C(F)(F)F)ccc12 | > 100 µM
16 | O=C(Nc1cc(Cl)cc(C(=O)Nc2ncc(C3CNC3)s2)c1)OCc1ccccc1 | > 100 µM
17 | NCc1cc(Cl)cc(C(=O)Nc2cccc(-c3nn[nH]n3)c2)c1 | > 100 µM
18 | N[C@H]1CCN(c2ccc(NS(=O)(=O)c3ccc(Oc4ccccc4Cl)cc3)cc2)C1 | > 100 µM
19 | N#Cc1cccc(-c2nc3c(C(=O)Nc4cccnc4)cc(Cl)cc3[nH]2)c1 | > 100 µM
20 | Cc1c(C(=O)Nc2cccc(-c3nnn[nH]3)c2)sc2ccccc12 | 75.2 µM
21 | Cc1c(C(=O)Nc2cc(C(=O)N3CCn4nccc43)ccn2)cc(C2CC2)n1C | > 100 µM
22 | N=C(N)NCCC[C@H](NC(=O)c1nccs1)C(=O)N[C@@H](CCCCN)C(=O)N[C@@H](C(N)=O)c1ccc(OCc2ccc(C(F)(F)F)cc2)cc1 | 1.46 µM and 1.87 µM and 1.17 µM and 2.77 µM and 3.21 µM and 2.73 µM and 3 µM and 2.69 µM and 2.58 µM and 2.57 µM (2×) and 2.84 µM (2×) and 3.15 µM and 3.2 µM and 2.52 µM (2×) and 2.33 µM and 2.17 µM and 2.34 µM and 2.39 µM and 2.31 µM and 2.49 µM and 2.93 µM and 2.95 µM and 2.64 µM and 3.09 µM and 2.26 µM and 2.59 µM and 2.92 µM and 2.68 µM and 2.2 µM and 2.3 µM and 2.12 µM and 1.71 µM and 1.91 µM and 1.72 µM and 2.55 µM and 2.1 µM
23 | N#Cc1cccc(-c2nc3c(C(=O)NCc4ccccn4)cc(Cl)cc3[nH]2)c1 | > 100 µM

Target: T1, Genome polyprotein
Format: functional, Thailand/16681/1984
Remark: another data set of the same source

Row | Compound | IC50
24 | c1ccc(-c2ncc(CN3CCC(c4nc5ccccc5s4)CC3)[nH]2)cc1 | > 99.5 µM
25 | CCNC(=O)[C@@H](NC(=O)OCc1ccccc1)c1ccc(OCc2ccccc2)cc1 | > 99.5 µM
26 | CN1CC[C@H](C2CCN(S(=O)(=O)c3cc(F)cc(C(=O)O)c3)CC2)C1 | > 99.5 µM
27 | NC(=O)c1ccccc1NS(=O)(=O)c1ccc(Oc2ccccc2Cl)cc1 | > 99.5 µM
28 | Cc1ccc(CN(C)C)cc1NC(=O)[C@@H](NC(=O)OCc1ccccc1)c1ccc(OCc2ccccc2)cc1 | > 99.5 µM
29 | O=C(O)c1cc(Oc2ccc(F)cc2)c(F)cc1NS(=O)(=O)c1ccc(Oc2ccccc2Cl)cc1 | 3.76 µM
30 | Cc1n[nH]cc1CC(=O)N1CCCC12CCN(C(=O)c1ccnc(CO)c1)CC2 | > 99.5 µM
31 | CCn1ccnc(N2C[C@H](c3c[nH]c4ccccc34)[C@H](N3C(=O)c4ccccc4C3=O)C2)c1=O | > 99.5 µM
32 | O=C(Nc1ccc2c(c1)CNC2)c1cccc2c1OCO2 | > 99.5 µM
33 | Cc1ccc(CNC(=O)c2cc(Cl)ccc2NS(=O)(=O)c2ccc(Oc3ccccc3Cl)cc2)s1 | > 99.5 µM
34 | Cn1nc(NC(=O)c2cc(Cl)cc(NC(=O)OCc3ccccc3)c2)c2c1CNC2 | 89.1 µM
35 | CNC(=O)c1cnncc1NS(=O)(=O)c1ccc(Oc2ccccc2Cl)cc1 | > 99.5 µM
36 | O=C1CCc2cc(NC(=O)c3cc(Cl)cc4[nH]ncc34)ccc2N1 | > 99.5 µM
37 | O=C(O)CN(c1ccc(Cl)cc1)S(=O)(=O)c1ccc(Oc2ccccc2Cl)cc1 | 86.6 µM
38 | NCc1cccc(NC(=O)[C@H](NC(=O)OCc2ccccc2)c2ccc(Br)cc2F)c1 | 66 µM
39 | O=C(O)c1cc(Cl)ccc1CS(=O)(=O)c1ccc(Oc2ccccc2Cl)cc1 | > 99.5 µM
40 | CN1CCn2nc(NC(=O)[C@@H](NC(=O)OCc3ccccc3)c3ccc(OCc4ccccc4)cc3)cc2C1 | > 99.5 µM
41 | CCn1c(=O)c(N2CC[C@H](N3CCCC3=O)C2)nc2ccccc21 | > 99.5 µM
42 | CCn1c(=O)c(N2C[C@@H]3CS(=O)(=O)C[C@@H]3C2)nc2ccccc21 | > 99.5 µM
43 | COC(=O)[C@@H]1CC2(CC[C@@H]1NS(=O)(=O)c1ccc(Oc3ccccc3Cl)cc1)CC2 | > 99.5 µM
44 | CCn1c(=O)c(N2CC3(CCC3)C[C@@H]2C)nc2ccccc21 | > 99.5 µM
45 | NCc1cccc(NC(=O)c2ccc(OCC(F)(F)F)c(NC(=O)OCc3ccccc3)c2)c1 | > 99.5 µM
46 | Cc1ncc(COc2ccc([C@H](NC(=O)OCc3ccccc3)C(=O)Nc3cccc(CN)c3)cc2)cn1 | > 99.5 µM
47 | NC(=O)c1ccc(N2CC[C@@H](CO)C2)cc1 | > 99.5 µM
48 | CCn1c(=O)c(N2CC[C@@]3(CCCN3C)C2)nc2ccccc21 | > 99.5 µM

Row | Compound | IC50
49 | COC(=O)CNC(=O)[C@H](Nc1ccc2c(c1)CNC2)c1cc(Cl)cc(C2CC2)c1 | > 99.5 µM
50 | CCn1ccnc(N2CC[C@@H](C(=O)NC)C2)c1=O | > 99.5 µM
51 | O=c1ccccn1-c1ncc(Br)cn1 | > 99.5 µM
52 | Cc1cc(-n2nccc2NC(=O)[C@]2(c3ccc(F)cc3)CCCNC2)ncn1 | > 99.5 µM
53 | Cc1ncsc1C(=O)N[C@H](C(=O)Nc1cccc(CN)c1)c1ccc(OCc2ccccc2)cc1 | > 99.5 µM
54 | O=C(Nc1ccc2c(c1)CNC2)c1cc(F)cc2[nH]c(-c3cnccc3O)nc12 | 69.7 µM
55 | CCOc1cc(N2CCN(C)CC2)ccc1NS(=O)(=O)c1ccc(Cl)cc1C(=O)O | > 99.5 µM
56 | NCc1cccc(NC(=O)[C@H](NS(=O)(=O)Cc2ccccc2)c2ccc(OCc3ccccc3)cc2)c1 | > 99.5 µM
57 | O=C(NCC(F)(F)F)c1cc(Cl)c(F)cc1NS(=O)(=O)c1ccc(Oc2ccccc2Cl)cc1 | 5.18 µM
58 | COc1nc(Cl)c(CSc2nc(C)co2)s1 | > 99.5 µM
59 | c1ccc2c(CNCc3ccc(-c4cscn4)cc3)c[nH]c2c1 | > 99.5 µM
60 | C=CC[C@H]1NCc2cc(NC(=O)c3ccc4c(c3)CC(=O)N4)ccc21 | > 99.5 µM
61 | NCc1cccc(NC(=O)[C@H](NC(=O)OCc2ccccc2)C2CCC(c3ccccc3)CC2)c1 (stereo partly drawn) | 6.26 µM and 5.78 µM
62 | NCc1cccc(NC(=O)[C@@H](NC(=O)OCc2ccccc2)c2cc(F)cc(F)c2)c1 | > 99.5 µM
63 | CCn1cc(-c2cccc(-n3cccn3)c2)nc(N2CC[C@@H](CO)C2)c1=O | > 99.5 µM
64 | O=C(Nc1ccccc1)Oc1ccccc1 [PHENYL PHENYLCARBAMATE] | > 59.8 µM
65 | CCn1ccnc(N2CC[C@H](c3ccncc3)C2)c1=O | > 99.5 µM
66 | CCn1ccnc(N2CC[C@H](c3c[nH]c4ccccc34)C2)c1=O | > 99.5 µM
67 | COc1cc(NC(=O)OCc2ccccc2)nc(C(=O)Nc2cccc(CN)c2)c1 | > 99.5 µM
68 | CN1CCn2nc(NC(=O)c3cc(Cl)cc(NC(=O)OCc4ccccc4)c3)cc2C1 | > 99.5 µM
69 | NC[C@H]1CCN1C(=O)[C@@H](NC(=O)OCc1ccccc1)c1ccc(OCc2ccccc2)cc1 | > 99.5 µM
70 | O=C1C[C@@H](CNC(=O)c2cc(Cl)ccc2NS(=O)(=O)c2ccc(Oc3ccccc3Cl)cc2)CN1 | 79.3 µM
71 | CCn1c(=O)c(N2CC[C@@H](CO)C2)nc2ccccc21 | > 99.5 µM
72 | O=c1c(N2CC[C@H](CO)C2)nccn1C1CC1 | > 99.5 µM
73 | CCn1ccnc(N(C)[C@@H](CO)Cc2c[nH]c3ccccc23)c1=O | > 99.5 µM

Row | Compound | IC50
74 | CN(C)CCNC(=O)[C@H](NC(=O)OCc1ccccc1)c1ccc(OCc2ccccc2)cc1 | > 99.5 µM
75 | O=Cc1ccc(N2CCC(C(=O)NC[C@H](O)c3ccc(O)c(O)c3)CC2)cc1 | 33.4 µM
76 | O=C(O)c1nscc1NS(=O)(=O)c1ccc(Oc2ccccc2Cl)cc1 | 63.2 µM
77 | O=C(O)c1ccsc1NS(=O)(=O)c1ccc(Oc2ccccc2Cl)cc1 | 20.1 µM
78 | CN(C)[C@@H]1C[C@H](C(=O)Nc2cccc(CN)c2)CN(C(=O)OCc2ccccc2)C1 | > 99.5 µM
79 | O=C(O)c1cc(Cl)cc(NS(=O)(=O)c2ccc(Oc3ccccc3Cl)cc2)c1 | > 99.5 µM
80 | CN(C)CCc1ccc(CNC(=O)[C@@H](NC(=O)OCc2ccccc2)c2ccc(OCc3ccccc3)cc2)cc1 | > 99.5 µM
81 | c1ccc2[nH]c(CC3CCN(Cc4nccs4)CC3)nc2c1 | > 99.5 µM
82 | NCc1cccc(NC(=O)[C@H](NC(=O)OCc2ccccc2)c2cccc(C3=CCCOC3)c2)c1 | > 99.5 µM
83 | NCc1cccc(NC(=O)[C@H]2[C@@H]3CC[C@@H](C3)[C@H]2NC(=O)OCc2ccccc2)c1 | > 99.5 µM
84 | Cc1occ(C(F)(F)F)c1C(=O)N[C@H](C(=O)Nc1cccc(CN)c1)c1ccc(OCc2ccccc2)cc1 | > 99.5 µM
85 | Cc1ccc(CNC(=O)[C@@H](NC(=O)OCc2ccccc2)c2ccc(OCc3ccccc3)cc2)cn1 | > 99.5 µM
86 | O=C1Cc2c(cc(F)cc2C(=O)Nc2cc([C@H]3CCOC3)ccn2)N1 | > 99.5 µM
87 | CCCCCNC(=O)c1cc(Cl)ccc1NS(=O)(=O)c1ccc(Oc2ccccc2Cl)cc1 | > 99.5 µM
88 | NC[C@H]1CC[C@@H](CNC(=O)[C@@H](NC(=O)OCc2ccccc2)c2ccc(OCc3ccccc3)cc2)CC1 | 85.6 µM
89 | Cc1cnc(Oc2ccc(S(=O)(=O)Nc3ccc(Cl)cc3C(=O)O)cc2)cn1 | > 99.5 µM
90 | O=Cc1ccc(N2CCC(C(=O)Nc3ccc(Br)cc3O)CC2)cc1 | 33.9 µM
91 | Cc1cc(-c2cccc([C@@H](NC(=O)OCc3ccccc3)C(=O)Nc3cccc(CN)c3)c2)ccn1 | > 99.5 µM
92 | Cc1nc(CCCNCc2n[nH]c3ccccc23)cs1 | > 99.5 µM
93 | CCn1ccnc(N2CC[C@H](c3ccc(F)cc3)C2)c1=O | > 99.5 µM
94 | COc1ccc(-c2cc(NS(=O)(=O)c3ccc(Cl)cc3C(=O)O)ccc2OC)cc1 | 48.8 µM
95 | O=C(Nc1cc(Cl)cc(C(=O)Nc2ccc3c(c2)CNCC3)c1)OCc1ccccc1 | 57.8 µM
96 | NCc1cccc(NC(=O)CN(C(=O)OCc2ccccc2)c2ccc(OCc3ccccc3)cc2)c1 | 34.9 µM
97 | O=C(Nc1ccc(Cl)cc1C(=O)Nc1cccc(C2CCNCC2)c1)OCc1ccccc1 | > 99.5 µM
98 | Cc1nnc(CSc2ncnc3sccc23)o1 | > 99.5 µM
